Source: patent US20210395313A1, “PEPTIDE PAC1 ANTAGONISTS” (AMGEN INC., priority 2017, published 2021)
pIC50: −log10 of the molar value. Where a SMILES comes first, the peptide text is derived from it. Bridges are numbered along the chain shown (N, C = ends). Where no end group is shown, it is not given here.

Tests used:
human PAC1 receptor = molecular target: T1, human PAC1 receptor (Homo sapiens, UniProt P41586); assay: LANCE Ultra cAMP accumulation antagonist assay in SHSY-5Y cells; assay type: cell-based;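 also: inhibition of cAMP accumulation evoked by PAC1 agonist at its EC80 in SHSY-5Y cells endogenously expressing receptor, 30 min preincubation then 15 min agonist, TR-FRET readout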
T1 construct: SHSY-5Y (human neuroblastoma cell line) and RG-2 (rat glioma cell line) cells endogenously express human and rat PAC1 receptors, respectively; endogenous in cells; host or cells: SHSY-5Y human neuroblastoma cells
T1 sequence (P41586 21-468): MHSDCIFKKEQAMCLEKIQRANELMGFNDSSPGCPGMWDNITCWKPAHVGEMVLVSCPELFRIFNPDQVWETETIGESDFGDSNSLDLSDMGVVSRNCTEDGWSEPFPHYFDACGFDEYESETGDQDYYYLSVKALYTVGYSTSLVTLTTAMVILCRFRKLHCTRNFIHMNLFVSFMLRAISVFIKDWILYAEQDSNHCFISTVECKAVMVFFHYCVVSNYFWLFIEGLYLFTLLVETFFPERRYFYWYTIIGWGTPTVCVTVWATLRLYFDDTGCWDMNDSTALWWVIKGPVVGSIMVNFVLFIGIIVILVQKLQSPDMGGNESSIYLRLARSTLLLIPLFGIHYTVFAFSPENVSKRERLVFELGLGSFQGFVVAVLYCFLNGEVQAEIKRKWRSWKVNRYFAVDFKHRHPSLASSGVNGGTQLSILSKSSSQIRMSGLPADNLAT

rat PAC1 receptor = molecular target: T2, rat PAC1 receptor (Rattus norvegicus, UniProt P32215); assay: LANCE Ultra cAMP accumulation antagonist assay in RG-2 cells; assay type: cell-based;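 also: RG-2 rat glioma cells endogenously expressing PAC1, test peptide preincubated 30 min, then PAC1 agonist added at its EC80 for 15 min, cAMP accumulation read by LANCE Ultra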
T2 construct: SHSY-5Y (human neuroblastoma cell line) and RG-2 (rat glioma cell line) cells endogenously express human and rat PAC1 receptors, respectively; endogenous in cells; host or cells: RG-2 rat glioma cells
T2 sequence (P32215 20-523): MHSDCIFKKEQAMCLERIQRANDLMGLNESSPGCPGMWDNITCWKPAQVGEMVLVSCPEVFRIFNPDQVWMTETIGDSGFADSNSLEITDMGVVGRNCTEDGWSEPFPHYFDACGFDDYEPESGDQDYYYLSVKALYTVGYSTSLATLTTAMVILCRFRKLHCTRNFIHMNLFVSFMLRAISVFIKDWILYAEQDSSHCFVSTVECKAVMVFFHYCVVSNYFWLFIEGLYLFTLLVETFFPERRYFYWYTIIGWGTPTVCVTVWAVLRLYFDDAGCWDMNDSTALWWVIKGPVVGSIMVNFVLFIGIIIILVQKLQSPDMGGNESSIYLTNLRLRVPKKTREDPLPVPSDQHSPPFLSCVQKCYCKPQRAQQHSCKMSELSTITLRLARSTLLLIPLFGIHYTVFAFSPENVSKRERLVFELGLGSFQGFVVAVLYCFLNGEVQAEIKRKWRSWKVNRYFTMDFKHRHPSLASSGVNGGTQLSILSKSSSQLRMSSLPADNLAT

“CDATCQFRKAIDDCYWQAIHANVPGSVWKACMKFRFNVWKAG-NH2 (disulfide 1-5, 14-31) [compound 54]” showed a pIC50 (human PAC1 receptor) of 7.00 to 9.00 and a pIC50 (rat PAC1 receptor) of 9.00 to 11.00.
“CDATCQFRKAIDDCDRQAHHSNVPGSVFKACMKQKKKEWKAGH (disulfide 1-5, 14-31) [compound 167]” showed a pIC50 (human PAC1 receptor) of 9.00 to 11.00 and a pIC50 (rat PAC1 receptor) of 9.00 to 11.00.
With “CDATCQFRKAIDDCQKQAHHSNVPGSVFKACMKQKKKEFKAGQ (disulfide 1-5, 14-31) [compound 174]” the pIC50 (human PAC1 receptor) was 7.00 to 9.00 and the pIC50 (rat PAC1 receptor) was 9.00 to 11.00.
For “CDATCFFRKVIDDCQKQAHHSNVPGSVFKACMKQLKKRWQAG-NH2 (disulfide 1-5, 14-31) [compound 125]”, the pIC50 (human PAC1 receptor) was < 7.00 and the pIC50 (rat PAC1 receptor) was 7.00 to 9.00.
For “CDATCHFRKAIDDCYYRSWHSNVPGSVFKACMKQHKKRWRAG-NH2 (disulfide 1-5, 14-31) [compound 71]”, the pIC50 (human PAC1 receptor) was 9.00 to 11.00 and the pIC50 (rat PAC1 receptor) was 9.00 to 11.00.
For “CDATCQFRKAIDDCDRQAHHSNVPGSVFKACMKQKKKEFKAG-NH2 (disulfide 1-5, 14-31) [compound 168]”, the pIC50 (human PAC1 receptor) was 9.00 to 11.00 and the pIC50 (rat PAC1 receptor) was 9.00 to 11.00.
“CDATCQFRKAIDDCDRQAYHSNVPGSVFKACMKQKKKEWKAG-NH2 (disulfide 1-5, 14-31) [compound 144]” gave a pIC50 (human PAC1 receptor) of 9.00 to 11.00 and a pIC50 (rat PAC1 receptor) of 9.00 to 11.00.
In the case of `CC[C@H](C)[C@H](NC(=O)[C@H](C)NC(=O)[C@H](CCCCN)NC(=O)[C@H](CCCNC(=N)N)NC(=O)[C@H](Cc1ccccc1)NC(=O)[C@H](CCC(N)=O)NC(=O)[C@@H]1CSSC[C@H](N)C(=O)N[C@@H](CC(=O)O)C(=O)N[C@@H](C)C(=O)N[C@@H]([C@@H](C)O)C(=O)N1)C(=O)N[C@@H](CC(=O)O)C(=O)N[C@@H](CC(=O)O)C(=O)N[C@H]1CSSC[C@@H](C(=O)N[C@@H](CCSC)C(=O)N[C@@H](CCCCN)C(=O)N[C@@H](CCC(N)=O)C(=O)N[C@@H](CCCCN)C(=O)N[C@@H](CCCCN)C(=O)N[C@@H](CCCCN)C(=O)N[C@@H](CCC(=O)O)C(=O)N[C@@H](Cc2ccccc2)C(=O)N[C@@H](CCCCN)C(N)=O)NC(=O)[C@H](CCC(=O)O)NC(=O)[C@H](CCCCN)NC(=O)[C@H](Cc2ccccc2)NC(=O)[C@H](C(C)C)NC(=O)[C@H](CO)NC(=O)[C@H](CO)NC(=O)[C@H](Cc2c[nH]cn2)NC(=O)[C@H](Cc2c[nH]cn2)NC(=O)[C@H](C)NC(=O)[C@H](CCC(N)=O)NC(=O)[C@H](CCCCN)NC(=O)[C@H](CCC(N)=O)NC1=O` [compound 225] (H-CDATCQFRKAIDDCQKQAHHSSVFKECMKQKKKEFK-NH2; disulfide 1-5, 14-27), the pIC50 (human PAC1 receptor) was 9.00 to 11.00 and the pIC50 (rat PAC1 receptor) was 7.00 to 9.00.
With “CDATCQFRKAIDDCARQAHHSNVPGSVFKACFKQKKKEWKAGH (disulfide 1-5, 14-31) [compound 39]” the pIC50 (human PAC1 receptor) was 9.00 to 11.00 and the pIC50 (rat PAC1 receptor) was 9.00 to 11.00.
In the case of “CDATCQFRKAIDDCYYRSWHSNVPGSVFKACMKQKKKEFKAG (disulfide 1-5, 14-31) [compound 64]”, the pIC50 (human PAC1 receptor) was 7.00 to 9.00 and the pIC50 (rat PAC1 receptor) was 9.00 to 11.00.
In the case of `CC[C@H](C)[C@H](NC(=O)[C@H](C)NC(=O)[C@H](CCCCN)NC(=O)[C@H](CCCNC(=N)N)NC(=O)[C@H](Cc1ccccc1)NC(=O)[C@H](CCC(N)=O)NC(=O)[C@@H]1CSSC[C@H](N)C(=O)N[C@@H](CC(=O)O)C(=O)N[C@@H](C)C(=O)N[C@@H]([C@@H](C)O)C(=O)N1)C(=O)N[C@@H](CC(=O)O)C(=O)N[C@@H](CC(=O)O)C(=O)N[C@H]1CSSC[C@@H](C(=O)N[C@@H](CCSC)C(=O)N[C@@H](CCCCN)C(=O)N[C@@H](CCC(N)=O)C(=O)N[C@@H](CCCCN)C(=O)N[C@@H](CCCCN)C(=O)N[C@@H](CCCCN)C(=O)N[C@@H](CCC(=O)O)C(=O)N[C@@H](Cc2c[nH]c3ccccc23)C(=O)N[C@@H](CCCCN)C(=O)N[C@@H](C)C(=O)NCC(=O)N[C@@H](Cc2c[nH]cn2)C(=O)O)NC(=O)[C@H](C)NC(=O)[C@H](CCCCN)NC(=O)[C@H](Cc2ccccc2)NC(=O)[C@H](C(C)C)NC(=O)[C@H](CO)NC(=O)[C@H](CO)NC(=O)[C@H](Cc2c[nH]cn2)NC(=O)[C@H](Cc2c[nH]cn2)NC(=O)[C@H](C)NC(=O)[C@H](CCC(N)=O)NC(=O)[C@H](CCCNC(=N)N)NC(=O)[C@H](C(C)C)NC1=O` [compound 75] (H-CDATCQFRKAIDDCVRQAHHSSVFKACMKQKKKEWKAGH-OH; disulfide 1-5, 14-27), the pIC50 (human PAC1 receptor) was 9.00 to 11.00 and the pIC50 (rat PAC1 receptor) was > 11.00.
Compound “CDATCQFRKAIDDCQKQAHHSNVPGSVFKACMKQRKKRWLAG-NH2 (disulfide 1-5, 14-31) [compound 126]” has a pIC50 (human PAC1 receptor) of 9.00 to 11.00 and a pIC50 (rat PAC1 receptor) of 9.00 to 11.00.
In the case of “CDATCQFRKAIDDCARQAHHSNVPGSVFKACMKQKKKEYKAGH (disulfide 1-5, 14-31) [compound 10]”, the pIC50 (human PAC1 receptor) was 9.00 to 11.00 and the pIC50 (rat PAC1 receptor) was 9.00 to 11.00.
With “CDATCQFRKAIDECAKQAHHSNVPGSVFKACMKQKKKEFKAG-NH2 (disulfide 1-5, 14-31) [compound 12]” the pIC50 (human PAC1 receptor) was 9.00 to 11.00 and the pIC50 (rat PAC1 receptor) was > 11.00.
Compound “CDATCQFRKAIDDCQKQAHHSNVPGSVFKACMKQKKKEFKAH (disulfide 1-5, 14-31) [compound 153]” has a pIC50 (human PAC1 receptor) of 7.00 to 9.00 and a pIC50 (rat PAC1 receptor) of 9.00 to 11.00.
With `CC[C@H](C)[C@H](NC(=O)[C@H](C)NC(=O)[C@H](CCCCN)NC(=O)[C@H](CCCNC(=N)N)NC(=O)[C@H](Cc1ccccc1)NC(=O)[C@H](CCC(N)=O)NC(=O)[C@@H]1CSSC[C@H](N)C(=O)N[C@@H](CC(=O)O)C(=O)N[C@@H](C)C(=O)N[C@@H]([C@@H](C)O)C(=O)N1)C(=O)N[C@@H](CC(=O)O)C(=O)N[C@@H](CC(=O)O)C(=O)N[C@H]1CSSC[C@@H](C(=O)N[C@@H](CCSC)C(=O)N[C@@H](CCCCN)C(=O)N[C@@H](CCC(N)=O)C(=O)N[C@@H](CCCCN)C(=O)N[C@@H](CCCCN)C(=O)N[C@@H](CCCCN)C(=O)N[C@@H](CCC(=O)O)C(=O)N[C@@H](Cc2ccccc2)C(=O)N[C@@H](CCCCN)C(=O)N[C@@H](C)C(=O)NCC(=O)N[C@@H](CCCCN)C(=O)O)NC(=O)[C@H](CCC(=O)O)NC(=O)[C@H](CCCCN)NC(=O)[C@H](Cc2ccccc2)NC(=O)[C@H](C(C)C)NC(=O)[C@H](CO)NC(=O)[C@H](CC(N)=O)NC(=O)[C@H](CO)NC(=O)[C@H](Cc2c[nH]cn2)NC(=O)[C@H](Cc2c[nH]cn2)NC(=O)[C@H](C)NC(=O)[C@H](CCC(N)=O)NC(=O)[C@H](CCCCN)NC(=O)[C@H](CCC(N)=O)NC1=O` [compound 396] (H-CDATCQFRKAIDDCQKQAHHSNSVFKECMKQKKKEFKAGK-OH; disulfide 1-5, 14-28) the pIC50 (human PAC1 receptor) was 7.00 to 9.00.
“CDATCQFRKAIDDCQKQAHHSNVPNSVFKECMKQKKKEFKAGK (disulfide 1-5, 14-31) [compound 365]” showed a pIC50 (human PAC1 receptor) of 7.00 to 9.00.
For “CDATCQFRKAIDDCQKQAHHSNVPGNSVKECMKQKKKEFKAGK (disulfide 1-5, 14-31) [compound 362]”, the pIC50 (human PAC1 receptor) was < 7.00.
“CDATCQFRKAIDDCKQQAHHSNVPGNSVFEKCMKQKKKEFKAGK (disulfide 1-5, 14-32) [compound 346]” was tested, and the pIC50 (human PAC1 receptor) was < 7.00.
Compound “CDATCQFRKAIDDCQKQAHHSNVSVFKECMKQKKKEFKAGK (disulfide 1-5, 14-29) [compound 397]” has a pIC50 (human PAC1 receptor) of 7.00 to 9.00.
